# Target: T1, wild-type human ALK cytoplasmic domain (amino acids 1058-1620) (Homo sapiens, UniProt Q9UM73)
# T1 construct: The cytoplasmic domain (amino acids 1058-1620) of wild-type human ALK; GST (N); made in house; host or cells: SF9 insect cells
# Assay: ALK Inhibition in Enzyme Assay (Lance TR-FRET)
# Type: biochemical
# Details: 2 nM enzyme, ATP at 40 μM (Km apparent), 90 minutes, mean of three replicates; read-out: ALK IC50
# How it was run: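 Purified enzyme phosphorylated a biotinylated peptide substrate for 90 minutes at room temperature. Reactions were stopped with 20 mM EDTA in 50 mM Tris (pH 7.5), 100 mM NaCl, 0.05% BSA, 0.1% Tween-20. Phosphopeptide was detected by TR-FRET with SA-APC and Eu-W1024 anti-phosphotyrosine antibody PT66, excitation 320 nm.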
# T1 sequence (Q9UM73 1058-1620): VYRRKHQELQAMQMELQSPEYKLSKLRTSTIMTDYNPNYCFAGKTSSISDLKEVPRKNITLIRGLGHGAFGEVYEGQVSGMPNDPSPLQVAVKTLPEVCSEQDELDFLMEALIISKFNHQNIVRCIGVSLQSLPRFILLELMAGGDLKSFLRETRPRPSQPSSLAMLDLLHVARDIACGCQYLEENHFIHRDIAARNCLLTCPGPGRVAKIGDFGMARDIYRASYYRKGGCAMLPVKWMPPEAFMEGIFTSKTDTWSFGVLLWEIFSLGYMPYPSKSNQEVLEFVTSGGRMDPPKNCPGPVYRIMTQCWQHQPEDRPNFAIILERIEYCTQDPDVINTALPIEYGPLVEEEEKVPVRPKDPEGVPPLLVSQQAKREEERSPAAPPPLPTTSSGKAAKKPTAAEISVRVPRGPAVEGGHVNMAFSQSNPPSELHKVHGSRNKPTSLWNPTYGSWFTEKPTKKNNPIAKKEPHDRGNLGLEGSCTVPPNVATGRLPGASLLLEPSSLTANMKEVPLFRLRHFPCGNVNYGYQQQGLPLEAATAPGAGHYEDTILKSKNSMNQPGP
row,Compound,IC50
1,"COc1cc(Nc2nccc(N3CCC[C@H](C(=O)NC(C)c4ccc5[nH]ccc5c4)C3)n2)cc(OC)c1OC (stereo partly drawn) [Example 45, (S)-N-(1-(1H-indol-5-yl)ethyl)-1-(2-((3,4,5-trimethoxyphenyl)amino)-4-pyrimidinyl)-3-piperidinecarboxamide]",100 to 1000 nM
2,"Cc1ccc(CNC(=O)[C@H]2CCCN(c3ccnc(Nc4cccc(F)c4)n3)C2)cc1 [Example 185, (3S)-1-(2-((3-fluorophenyl)amino)-4-pyrimidinyl)-N-(4-methylbenzyl)-3-piperidinecarboxamide]",1000 to 5000 nM
3,"COc1cc(Nc2nccc(N3CCC[C@H](C(=O)NCc4ccccc4Br)C3)n2)cc(OC)c1OC [Example 49, (S)-N-(2-bromobenzyl)-1-(2-((3,4,5-trimethoxyphenyl)amino)-4-pyrimidinyl)-3-piperidinecarboxamide]",1000 to 5000 nM
4,"COc1ccc(CCNC(=O)[C@H]2CCCN(c3ccnc(Nc4cc(OC)c(OC)c(OC)c4)n3)C2)cc1 [Example 93, (S)-N-(2-(4-methoxyphenyl)ethyl)-1-(2-((3,4,5-trimethoxyphenyl)amino)-4-pyrimidinyl)-3-piperidinecarboxamide]",100 to 1000 nM
5,"COc1cc(Nc2nccc(N3CCC[C@H](C(=O)NCc4cccc(Oc5ccc(C)cc5)c4)C3)n2)cc(OC)c1OC [Example 114, (S)-N-(3-(4-methylphenoxy)benzyl)-1-(2-((3,4,5-trimethoxyphenyl)amino)-4-pyrimidinyl)-3-piperidinecarboxamide]",1000 to 5000 nM
6,"CC(=O)Nc1ccc(Nc2nccc(N3CCC[C@H](C(=O)NCc4ccc(C)cc4)C3)n2)cc1 [Example 165, (3S)-1-(2-((4-(acetylamino)phenyl)amino)-4-pyrimidinyl)-N-(4-methylbenzyl)-3-piperidinecarboxamide]",1000 to 5000 nM
7,"COc1cc(Nc2nccc(N3CCC[C@H](C(=O)NCc4cccc(-n5cccn5)c4)C3)n2)cc(OC)c1OC [Example 111, (S)-N-(3-(1H-pyrazol-1-yl)benzyl)-1-(2-((3,4,5-trimethoxyphenyl)amino)-4-pyrimidinyl)-3-piperidinecarboxamide]",100 to 1000 nM
8,"COc1cc(Nc2nccc(N3CCC[C@H](C(=O)NCc4ccc(F)cc4)C3)n2)cc(OC)c1OC [Example 14, (S)-N-((4-fluorophenyl)methyl)-1-(2-((3,4,5-tris(methyloxy)phenyl)amino)-4-pyrimidinyl)-3-piperidinecarboxamide]",100 to 1000 nM
9,"COc1cc(Nc2nccc(N3CCC[C@H](C(=O)NCc4ccc(OC(F)F)cc4)C3)n2)cc(OC)c1OC [Example 75, (S)-N-(4-(difluoromethoxy)benzyl)-1-(2-((3,4,5-trimethoxyphenyl)amino)-4-pyrimidinyl)-3-piperidinecarboxamide]",< 50 nM
10,"COc1cc(Nc2nccc(N3CCC[C@H](C(=O)NC(C)c4ccc(F)cc4)C3)n2)cc(OC)c1OC (stereo partly drawn) [Example 51, (S)-N-(1-(4-fluorophenyl)ethyl)-1-(2-((3,4,5-trimethoxyphenyl)amino)-4-pyrimidinyl)-3-piperidinecarboxamide]",100 to 1000 nM
11,"COc1cc(Nc2nccc(N3CCC[C@H](C(=O)NCc4ccc(C)c(C)c4)C3)n2)cc(OC)c1OC [Example 83, (S)-N-(3,4-dimethylbenzyl)-1-(2-((3,4,5-trimethoxyphenyl)amino)-4-pyrimidinyl)-3-piperidinecarboxamide]",100 to 1000 nM
12,"COc1cc(Nc2nccc(N3CCC[C@H](C(=O)NCc4ccc(F)c(Cl)c4)C3)n2)cc(OC)c1OC [Example 68, (S)-N-(3-chloro-4-fluorobenzyl)-1-(2-((3,4,5-trimethoxyphenyl)amino)-4-pyrimidinyl)-3-pipcridinecarboxamide]",100 to 1000 nM
13,"COc1cc(Nc2nccc(N3CC(C)CC(C(=O)NCc4ccc(C)cc4)C3)n2)cc(OC)c1OC (mixture of isomers) [Example 195, 5-Methyl-N-(4-Methylbenzyl)-1-(2-(3,4,5-Trimethoxyphenyl Amino)Pyrimidin-4-Yl)Piperidine-3-Carboxamide]",1000 to 5000 nM
14,"COc1cc(Nc2nccc(N3CCC[C@H](C(=O)NCc4ccc(S(C)(=O)=O)cc4)C3)n2)cc(OC)c1OC [Example 122, (S)-N-(4-(methylsulfonyl)benzyl)-1-(2-((3,4,5-trimethoxyphenyl)amino)-4-pyrimidinyl)-3-piperidinecarboxamide]",1000 to 5000 nM
15,"COc1cc(Nc2nccc(N3CCC[C@H](C(=O)NCc4ccc(C(C)C)cc4)C3)n2)cc(OC)c1OC [Example 117, (S)-N-(4-(1-methylethyl)benzyl)-1-(2-((3,4,5-trimethoxyphenyl)amino)-4-pyrimidinyl)-3-piperidinecarboxamide]",< 50 nM
16,"Cc1ccc(CNC(=O)[C@H]2CCCN(c3ccnc(Nc4cccc(Cc5ccccc5)c4)n3)C2)cc1 [Example 152, (3S)-1-(2-((3-benzylphenyl)amino)-4-pyrimidinyl)-N-(4-methylbenzyl)-3-piperidinecarboxamide]",100 to 1000 nM
17,"Cc1ccc(CNC(=O)[C@H]2CCCN(c3ccnc(Nc4ccc(C(C)C)cc4)n3)C2)cc1 [Example 172, (3S)-N-(4-methylbenzyl)-1-(2-((4-(1-methylethyl)phenyl)amino)-4-pyrimidinyl)-3-piperidinecarboxamide]",1000 to 5000 nM
18,"COc1cc(Nc2nccc(N3CCC[C@H](C(=O)NCc4cccc(-c5ccc(F)cc5)c4)C3)n2)cc(OC)c1OC [Example 108, (S)-N-((4′-fluoro-3-biphenylyl)methyl)-1-(2-((3,4,5-trimethoxyphenyl)amino)-4-pyrimidinyl)-3-piperidinecarboxamide]",< 50 nM
19,"COc1cc(Nc2nccc(N3CCC[C@H](C(=O)NCc4cccc(-n5cccc5)c4)C3)n2)cc(OC)c1OC [Example 110, (S)-N-(3-(1H-pyrrol-1-yl)benzyl)-1-(2-((3,4,5-trimethoxyphenyl)amino)-4-pyrimidinyl)-3-piperidinecarboxamide]",< 50 nM
20,"COc1cc(Nc2nccc(N3CCC[C@@H](C(=O)NCc4ccc(F)cc4)C3)n2)cc(OC)c1OC [Example 13, (R)—N-(4-Fluorobenzyl)-1-(2-(3,4,5-Trimethoxy-Phenylamino)Pyrimidin-4-Yl)Piperidine-3-Carboxamide]",1000 to 5000 nM
21,"COc1cc(Nc2nccc(N3CCC[C@H](C(=O)NCc4ccccc4C(F)(F)F)C3)n2)cc(OC)c1OC [Example 37, (S)-N-(2-(trifluoromethyl)benzyl)-1-(2-((3,4,5-trimethoxyphenyl)amino)-4-pyrimidinyl)-3-piperidinecarboxamide]",5000 to 10000 nM
22,"Cc1ccc(CNC(=O)[C@H]2CCCN(c3ccnc(Nc4cccc(-c5nnn[nH]5)c4)n3)C2)cc1 [Example 176, (3S)-N-(4-methylbenzyl)-1-(2-((3-(1H-tetrazol-5-yl)phenyl)amino)-4-pyrimidinyl)-3-piperidinecarboxamide]",5000 to 10000 nM
23,"Cc1ccc(CNC(=O)[C@H]2CCCN(c3ccnc(Nc4cccc(Oc5ccccc5)c4)n3)C2)cc1 [Example 149, (3S)-N-(4-methylbenzyl)-1-(2-((3-phenoxyphenyl)amino)-4-pyrimidinyl)-3-piperidinecarboxamide]",100 to 1000 nM
24,"Cc1ccc(CNC(=O)[C@H]2CCCN(c3ccnc(Nc4cccc(C(C)O)c4)n3)C2)cc1 (stereo partly drawn) [Example 167, (3S)-1-(2-((3-(1-hydroxyethyl)phenyl)amino)-4-pyrimidinyl)-N-(4-methylbenzyl)-3-piperidinecarboxamide]",100 to 1000 nM
25,"COc1cc(Nc2nccc(N3CCC[C@H](C(=O)NCc4ccc(F)c(F)c4)C3)n2)cc(OC)c1OC [Example 67, (S)-N-(3,4-difluorobenzyl)-1-(2-((3,4,5-trimethoxyphenyl)amino)-4-pyrimidinyl)-3-piperidinecarboxamide]",100 to 1000 nM
26,"Cc1ccc(CNC(=O)[C@H]2CCCN(c3ccnc(Nc4cc(C5CCN(C(=O)OC(C)(C)C)CC5)[nH]n4)n3)C2)cc1 [Example 144, tert-butyl 4-(3-((4-((3S)-3-((4-methylbenzyl)carbamoyl)-1-piperidinyl)-2-pyrimidinyl)amino)-1H-pyrazol-5-yl)-1-piperidinecarboxylate]",1000 to 5000 nM
27,"CNC(=O)c1cccc(Nc2nccc(N3CCC[C@H](C(=O)NCc4ccc(C)cc4)C3)n2)c1 [Example 168, (3S)-N-(4-methylbenzyl)-1-(2-((3-(methylcarbamoyl)phenyl)amino)-4-pyrimidinyl)-3-piperidinecarboxamide]",1000 to 5000 nM
28,"Cc1ccc(CNC(=O)[C@H]2CCCN(c3ccnc(Nc4ccc(S(N)(=O)=O)cc4)n3)C2)cc1 [Example 188, (S)-N-(4-methylbenzyl)-1-(2-(4-sulfamoylphenylamino)pyrimidin-4-yl)piperidine-3-carboxamide]",100 to 1000 nM

# Reference: patent publication US8716281B2, “Pyrimidine compounds that inhibit anaplastic lymphoma kinase” (Amgen Inc., priority 2010, dated 2014)
